Source: PMC12198292, “Advancing in vitro assessment of iodide uptake inhibition: integrating a novel biotransformation pretreatment step” (Archives of Toxicology, 2025)
≈ marks a conversion by molar mass, not a printed value. Where “and” joins values, the source holds several entries; their conditions need not be identical. Equal entries are not always repeated. Where two headings read alike, the source gives them in different places.

Tests used:
NIS [1] = biological target: T1, NIS (Rattus norvegicus, UniProt Q63008); assay: NIS-inhibition assay (iodide uptake, Sandell–Kolthoff reaction) on FRTL-5; format: cell-based; conditions: mean ± SD, ≥ 3 independent experiments; 2 h exposure; SK reaction
T1 construct: the endogenously NIS-expressing rat FRTL-5 cell line; host or cells: FRTL-5 (CVCL_0265)
T1 sequence (Q63008 1-618): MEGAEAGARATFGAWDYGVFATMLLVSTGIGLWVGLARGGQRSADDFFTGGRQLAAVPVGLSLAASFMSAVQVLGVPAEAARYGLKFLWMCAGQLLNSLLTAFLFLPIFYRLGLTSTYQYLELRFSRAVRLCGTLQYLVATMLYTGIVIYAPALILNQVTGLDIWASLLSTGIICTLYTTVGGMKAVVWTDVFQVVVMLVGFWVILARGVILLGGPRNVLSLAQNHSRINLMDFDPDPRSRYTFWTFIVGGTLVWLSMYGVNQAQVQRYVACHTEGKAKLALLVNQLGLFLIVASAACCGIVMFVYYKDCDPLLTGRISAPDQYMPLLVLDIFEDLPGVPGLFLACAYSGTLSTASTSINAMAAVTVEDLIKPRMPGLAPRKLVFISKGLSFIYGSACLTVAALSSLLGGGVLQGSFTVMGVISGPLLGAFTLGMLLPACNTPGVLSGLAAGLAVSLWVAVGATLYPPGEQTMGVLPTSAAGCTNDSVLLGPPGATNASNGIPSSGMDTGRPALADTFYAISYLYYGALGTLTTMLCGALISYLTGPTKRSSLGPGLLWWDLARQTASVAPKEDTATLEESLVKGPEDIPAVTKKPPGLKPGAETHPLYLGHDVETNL

human NIS [2] = biological target: T2, human NIS (Homo sapiens, UniProt Q92911)
T2 sequence (Q92911 1-643): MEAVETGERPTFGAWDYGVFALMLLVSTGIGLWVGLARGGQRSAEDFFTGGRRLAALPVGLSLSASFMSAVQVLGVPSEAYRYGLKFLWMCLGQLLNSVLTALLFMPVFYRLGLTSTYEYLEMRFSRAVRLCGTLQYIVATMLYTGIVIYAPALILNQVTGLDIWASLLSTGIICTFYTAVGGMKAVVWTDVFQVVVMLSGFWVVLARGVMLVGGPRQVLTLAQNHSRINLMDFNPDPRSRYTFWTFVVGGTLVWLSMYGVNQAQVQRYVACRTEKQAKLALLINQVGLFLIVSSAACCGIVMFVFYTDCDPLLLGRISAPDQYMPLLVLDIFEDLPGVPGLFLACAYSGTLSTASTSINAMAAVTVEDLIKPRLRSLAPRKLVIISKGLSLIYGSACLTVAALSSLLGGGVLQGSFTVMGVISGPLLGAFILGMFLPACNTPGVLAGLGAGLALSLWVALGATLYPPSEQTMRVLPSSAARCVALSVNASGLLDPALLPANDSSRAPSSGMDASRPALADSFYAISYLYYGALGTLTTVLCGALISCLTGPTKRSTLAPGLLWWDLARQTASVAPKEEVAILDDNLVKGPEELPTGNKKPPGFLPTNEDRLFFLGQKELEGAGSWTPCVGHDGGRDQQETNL

[3] = parameters: method as in PubChem https://pubchem.ncbi.nlm.nih.gov/; conditions: ref PubChem https://pubchem.ncbi.nlm.nih.gov/; cited from earlier work
[4] = parameters: method as in PubChem https://pubchem.ncbi.nlm.nih.gov/; conditions: ref PubChem https://pubchem.ncbi.nlm.nih.gov/; cited from earlier work; remark: listed apart in the source
human NIS [5] = biological target: T2, human NIS; parameters: method as in Dong et al., 2019; conditions: MCF7hNIS; SK; ref Dong et al., 2019; read-out: Data from literature NIS IC20; cited from earlier work
in vitro = conditions: human
human NIS [6] = biological target: T2, human NIS; assay: Biotransformation (BTS, rat S9)-augmented NIS-inhibition assay, HEK293T NIS02
human NIS [7] = biological target: T2, human NIS; assay: NIS-inhibition assay (iodide uptake, Sandell–Kolthoff reaction) on HEK293T NIS 02; format: cell-based; parameters: host or cells: HEK293T (lentiviral transduction, puromycin selection, GFP sorting; lines NIS 02 and NIS C)
human NIS [8] = biological target: T2, human NIS; assay: NIS-inhibition assay (iodide uptake, Sandell–Kolthoff reaction) on HEK293T NIS C; format: cell-based; parameters: host or cells: HEK293T (lentiviral transduction, puromycin selection, GFP sorting; lines NIS 02 and NIS C)
human NIS [9] = biological target: T2, human NIS; parameters: host or cells: HEK293T (lentiviral transduction, puromycin selection, GFP sorting; lines NIS 02 and NIS C); conditions: hNIS-HEK293T-EPA, RAIU, cited from earlier work; for IC20: read-out: Data from literature NIS IC20; for IC50: read-out: Data from literature NIS IC50
human NIS [10] = biological target: T2, human NIS; parameters: host or cells: HEK293T (lentiviral transduction, puromycin selection, GFP sorting; lines NIS 02 and NIS C); method as in Dong et al., 2019; conditions: hNIS-HEK293T-EPA; SK; ref Dong et al., 2019; cited from earlier work
NIS [11] = biological target: T1, NIS; conditions: FRTL-5, RAIU, ref Buckalew et al., 2020, cited from earlier work; for IC50: read-out: Data from literature NIS IC50
[12] = ref PubChem https://pubchem.ncbi.nlm.nih.gov/; cited from earlier work
FRTL-5 cells = assay: Neutral red uptake viability assay, FRTL-5; conditions: for NR IC20 FRTL-5: mean±SD, 2 h exposure
HEK293T NIS C cells = assay: Neutral red uptake viability assay, HEK293T NIS C; conditions: for NR IC20 HEK293T NISC: mean±SD, 2 h exposure
HEK293T NIS02 cells = assay: Neutral red uptake viability assay, HEK293T NIS02; conditions: read-out: NR IC20 HEK293T NIS02; viability, neutral red assay; mean±SD; 2 h exposure
[13] = mean ± SD, ≥ 3 independent experiments, 2 h exposure, SK reaction, read-out: NIS IC50 HEK293T NIS 02
[14] = mean ± SD, ≥ 3 independent experiments, 2 h exposure, SK reaction

SMILES	IC50 (NIS [1])	effect of fully active BTS (W/S9, W/cof) on NIS inhibition versus control setups (human NIS [2])	log Kow [3]	Henry‘s law [4]	IC50 (human NIS [7]; [13])	NIS IC50 HEK293T NIS C (human NIS [8]; [14])	IC50 (human NIS [9]; ref US-EPA, 2024)	Data from literature NIS IC50 (human NIS [9]; ref Wang et al., 2018)	NIS IC50 FRTL-5 (NIS [1])	solubility in water [12]	NR IC20 FRTL-5 (FRTL-5 cells)	NR IC20 HEK293T NISC (HEK293T NIS C cells)	NIS IC50 HEK293T NIS 02 (human NIS [7]; [14])	Data from literature NIS IC50 (human NIS [9]; ref US-EPA, 2024)	IC50 (NIS [11])	IC50 (human NIS [9]; ref Buckalew et al., 2020)	other results
CCCCOC(=O)c1ccccc1C(=O)OCCCC [DBP, Dibutylphthalate]	92.3 ± 11.8 µM	statistically significant reduction in NIS inhibition	4.5	1.81x10^-6 atm- m^3/mol	51.7 µM and 52 µM	n.e and n.e.	26.9 µM	n.e.									IC20 (human NIS [2]): 5.57 ± 4.6 µM; IC20 (human NIS [5]): 63.1 µM; IC20 at 2 h (in vitro): 42 µM; increase of IC20 by preincubation in fully active BTS setup compared to the denatured BTS setup (human NIS [6]; W/S9, W/cof vs D S9, W/cof): more than ninefold; IC20 (human NIS [9]; ref Dong et al., 2019): 26.9 µM; IC20 (human NIS [9]; ref Hallinger et al., 2017): 191 µM; Data from literature NIS IC50 (human NIS [10]): n.e.
CCOc1cc(C(C)(C)C)ccc1C1COC(c2c(F)cccc2F)=N1 (stereo not shown) [ETX, Etoxazole, reference compound]		no biotransformation-related effect changes were detected															IC20 (in vitro): 28.8 µM; IC20 (human NIS [6]; read-out: NIS inhibition IC20 SM): 0.61 µM; IC50 (human NIS [7]; NIS IC50 HEK293T NIS 02): 7.1 ± 4.3 µM; IC50 (human NIS [8]): 11.7 ± 8 µM
Cn1cc[nH]c1=S [MMI, Methimazole, reference compound]			-0.34			n.e and n.e./ n.e.			n.e and n.e. / n.e.	200 mg/mL (≈ 1750 mM)	n.e. / n.e.	n.e./ n.e.	n.e and n.e./ n.e.	n.e.			Data from literature NIS IC50 (NIS [11]): n.e.; Data from literature NIS IC50 (human NIS [9]; ref Buckalew et al., 2020): n.e.; Data from literature NIS IC50 (human NIS [9]; ref Hallinger et al., 2017): n.e.; Data from literature NIS IC50 (human NIS [9]; ref Wang et al., 2019): n.e.
O=C(O)C(F)(F)C(F)(F)C(F)(F)C(F)(F)C(F)(F)C(F)(F)C(F)(F)F [PFOA, Perfluorooctanoic acid]						n.e and n.e./ n.e.		n.e.	n.e and n.e. / n.e.	3.3 mg/mL (≈ 7.97 mM)	n.e. / n.e.	n.e./ n.e.	n.e and n.e. / n.e.	n.e.	25.1 µM	75.9 µM	
O=S(=O)(O)C(F)(F)C(F)(F)C(F)(F)C(F)(F)C(F)(F)C(F)(F)C(F)(F)C(F)(F)F [PFOS, Perfluorooctane sulfonate]	9.3 µM and 9.31 µM		-1.08	4.34x10^-7 atm- m^3/mol	30.9 ± 21.7 µM	n.e and n.e. / n.e.	20.5 µM				n.e.	n.e. / n.e.			0.4 µM	1.3 µM	effect of fully active BTS (W/S9, W/cof) on NIS inhibition versus control setups (human NIS [6]; two-way ANOVA, p < 0.05): no significant differences were observed; IC50 (human NIS [9]; ref Wang et al., 2018): 16.6 µM; IC50 (human NIS [9]; ref Wang et al., 2019): 17 µM
CC(C)(c1cc(Br)c(O)c(Br)c1)c1cc(Br)c(O)c(Br)c1 [TBBPA, Tetrabromobisphenol A]	91.8 ± 10.8 µM		4.75	2.0x10^-7 atm- m^3/mol	30.1 ± 11.8 µM		91.1 µM										IC20 (FRTL-5 cells; read-out: NR IC20 FRTL-5, mean±SD, 2 h exposure): 33.4 µM; IC20 (HEK293T NIS02 cells): 66.8 µM; IC20 (HEK293T NIS C cells; read-out: NR IC20 HEK293T NISC, mean±SD, 2 h exposure): 57.6 µM; IC50 (human NIS [8]; mean ± SD, ≥ 3 independent experiments, 2 h exposure, SK reaction, read-out: NIS IC50 HEK293T NIS C): 54 ± 27.1 µM
